Our source for the IC50 values is US20210300940A1 (Merck Patent GmbH, priority 2018, published 2021).

The target of one assay is T1, TLR8 (Homo sapiens, UniProt Q9NR97).
T1 construct: expressed in transfected cells; host or cells: HEK/293 reporter cells (NF-kB luciferase)
T1 sequence (Q9NR97 27-1041): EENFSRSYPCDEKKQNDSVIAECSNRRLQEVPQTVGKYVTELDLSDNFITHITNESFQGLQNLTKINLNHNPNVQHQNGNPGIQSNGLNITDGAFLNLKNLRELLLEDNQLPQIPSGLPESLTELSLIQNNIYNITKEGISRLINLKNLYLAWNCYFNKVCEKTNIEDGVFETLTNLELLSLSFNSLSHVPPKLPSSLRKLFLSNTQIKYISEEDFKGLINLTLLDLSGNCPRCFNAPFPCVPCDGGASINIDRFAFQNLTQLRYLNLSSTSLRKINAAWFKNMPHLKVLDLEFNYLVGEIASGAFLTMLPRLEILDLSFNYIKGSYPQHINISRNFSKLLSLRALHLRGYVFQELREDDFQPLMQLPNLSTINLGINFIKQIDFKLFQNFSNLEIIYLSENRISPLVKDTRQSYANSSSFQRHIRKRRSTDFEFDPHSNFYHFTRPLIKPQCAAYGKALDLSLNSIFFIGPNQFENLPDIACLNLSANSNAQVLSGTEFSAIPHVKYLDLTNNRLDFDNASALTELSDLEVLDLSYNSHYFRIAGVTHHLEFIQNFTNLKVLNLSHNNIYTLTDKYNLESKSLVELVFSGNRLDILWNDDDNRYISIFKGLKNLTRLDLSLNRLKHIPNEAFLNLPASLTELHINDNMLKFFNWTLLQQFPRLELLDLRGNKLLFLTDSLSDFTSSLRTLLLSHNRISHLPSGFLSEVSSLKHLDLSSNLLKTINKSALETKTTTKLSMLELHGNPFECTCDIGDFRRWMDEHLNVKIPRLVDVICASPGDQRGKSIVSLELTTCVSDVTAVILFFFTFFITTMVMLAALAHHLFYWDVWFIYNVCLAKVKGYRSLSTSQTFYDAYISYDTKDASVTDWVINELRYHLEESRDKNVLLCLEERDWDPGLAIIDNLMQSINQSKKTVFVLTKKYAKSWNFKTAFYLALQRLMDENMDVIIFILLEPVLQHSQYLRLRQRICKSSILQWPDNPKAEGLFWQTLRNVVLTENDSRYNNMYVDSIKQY
Description: HEK/293 TLR8 Cell Assay. The note with it: HEK cells, R848 agonist 30 uM final concentration, Steady-Glo readout; read-out: TLR8 potency. In kind it is cell-based.

The next assay deals with T2, TLR7 (Homo sapiens, UniProt Q9NYK1).
T2 construct: expressed in transfected cells; host or cells: HEK/293 cells carrying TLR7 and an NF-kB luciferase reporter
T2 sequence (Q9NYK1 27-1049): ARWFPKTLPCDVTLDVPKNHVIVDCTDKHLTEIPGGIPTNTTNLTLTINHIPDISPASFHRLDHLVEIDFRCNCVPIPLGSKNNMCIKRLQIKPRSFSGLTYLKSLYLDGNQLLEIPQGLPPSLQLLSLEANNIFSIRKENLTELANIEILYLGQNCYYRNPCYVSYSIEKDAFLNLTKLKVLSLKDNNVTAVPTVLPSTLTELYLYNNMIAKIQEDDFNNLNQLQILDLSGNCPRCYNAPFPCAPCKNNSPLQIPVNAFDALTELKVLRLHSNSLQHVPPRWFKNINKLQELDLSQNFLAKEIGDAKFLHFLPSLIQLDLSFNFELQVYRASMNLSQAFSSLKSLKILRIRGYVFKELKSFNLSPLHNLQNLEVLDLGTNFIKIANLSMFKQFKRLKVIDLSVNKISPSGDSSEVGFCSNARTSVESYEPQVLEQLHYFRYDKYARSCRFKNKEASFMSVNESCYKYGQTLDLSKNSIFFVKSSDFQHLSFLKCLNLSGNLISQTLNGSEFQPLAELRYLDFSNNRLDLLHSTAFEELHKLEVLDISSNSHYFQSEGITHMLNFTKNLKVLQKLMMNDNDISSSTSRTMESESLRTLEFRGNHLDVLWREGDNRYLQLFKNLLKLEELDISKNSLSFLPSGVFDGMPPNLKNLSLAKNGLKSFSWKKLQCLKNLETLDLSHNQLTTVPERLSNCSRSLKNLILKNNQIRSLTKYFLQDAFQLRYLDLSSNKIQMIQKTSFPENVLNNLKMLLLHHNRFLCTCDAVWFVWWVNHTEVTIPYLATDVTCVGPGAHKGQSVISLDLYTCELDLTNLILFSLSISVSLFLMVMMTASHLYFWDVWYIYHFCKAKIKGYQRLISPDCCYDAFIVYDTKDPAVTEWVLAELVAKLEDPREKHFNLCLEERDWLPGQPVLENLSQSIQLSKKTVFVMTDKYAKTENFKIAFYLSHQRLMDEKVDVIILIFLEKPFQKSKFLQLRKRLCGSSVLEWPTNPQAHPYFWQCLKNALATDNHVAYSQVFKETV
The assay can be described thus: HEK/293 TLR7 Cell Assay. In kind it is cell-based. Particulars: TLR7/NFKb HEK cells, R848 agonist 10 uM final concentration, Steady-Glo readout; read-out: TLR7 potency. The procedure, abridged:
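TLR7/NF-κB reporter HEK293 cells, 5000/well, cultured 24 h, then preincubated 30 min with compound before R848 agonist (10 uM final). After 5 h stimulation, Steady-Glo luciferase luminescence read.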

Consider `N#Cc1ccc(N2C[C@H](NC(=O)CC3(F)CCNCC3)C[C@H](C(F)(F)F)C2)c2nccnc12` [Example 118, N-[(3R,5S)-1-(8-cyanoquinoxalin-5-yl)-5-(trifluoromethyl)piperidin-3-yl]-2-(4-fluoropiperidin-4-yl)acetamide], for which the IC50 on TLR8 and at TLR7 was less than 0.075 µM in each case.

Consider `N#Cc1ccc(N2C[C@H](NC(=O)CC3(N)CC3)C[C@H](C(F)(F)F)C2)c2nccnc12` [Example 119, 2-(1-aminocyclopropyl)-N-[(3R,5S)-1-(8-cyanoquinoxalin-5-yl)-5-(trifluoromethyl)piperidin-3-yl]acetamide], for which the IC50 on TLR8 is less than 0.075 µM; at TLR7 it was 0.075 to 0.15 µM.

`C[C@H]1C[C@@H](NC(=O)CC2(N)CC2)CN(c2ccc(C#N)c3nccnc23)C1` [Example 120, 2-(1-aminocyclopropyl)-N-[(3R,5S)-1-(8-cyanoquinoxalin-5-yl)-5-methylpiperidin-3-yl]acetamide]: the IC50 at TLR8 and on TLR7 was less than 0.075 µM each time.

Regarding `Cc1ncc(N2C[C@@H](C)C[C@@H](NC(=O)CC3(N)CC3)C2)c2cccnc12` [Example 121, 2-(1-aminocyclopropyl)-N-[(3R,5S)-5-methyl-1-(8-methyl-1,7-naphthyridin-5-yl)piperidin-3-yl]acetamide], the IC50 at TLR8 is less than 0.075 µM; at TLR7, 0.075 to 0.15 µM.

As for `Cc1ccc(N2C[C@@H](C)C[C@@H](NC(=O)[C@@H]3CCCN3)C2)c2cccnc12` [Example 122, (2S)—N-[(3R,5S)-5-methyl-1-(8-methylquinolin-5-yl)piperidin-3-yl]pyrrolidine-2-carboxamide], the values for the IC50 at TLR8 and on TLR7 were less than 0.075 µM and greater than 0.15 µM, respectively.

In the case of `O=C(N[C@@H]1C[C@H](C(F)(F)F)CN(c2ccc(C(F)(F)F)c3ncccc23)C1)[C@@H]1CCCN1` [Example 123, (2S)—N-[(3R,5S)-5-(trifluoromethyl)-1-[8-(trifluoromethyl)quinolin-5-yl]piperidin-3-yl]pyrrolidine-2-carboxamide], the IC50 at TLR8 was less than 0.075 µM; at TLR7, 0.075 to 0.15 µM.

Regarding `N#Cc1ccc(N2C[C@H](NC(=O)[C@@H]3CCCN3)C[C@H](C(F)(F)F)C2)c2nccnc12` [Example 124, (2S)—N-[(3R,5S)-1-(8-cyanoquinoxalin-5-yl)-5-(trifluoromethyl)piperidin-3-yl]pyrrolidine-2-carboxamide], the IC50 at TLR8 and at TLR7 was less than 0.075 µM in each case.

With `N#Cc1ccc(N2C[C@H](NC(=O)[C@@H]3CCCN3)C[C@H](C(F)(F)F)C2)c2cccnc12` [Example 125, (2S)—N-[(3R,5S)-1-(8-cyanoquinolin-5-yl)-5-(trifluoromethyl)piperidin-3-yl]pyrrolidine-2-carboxamide], the IC50 at TLR8 and at TLR7 was less than 0.075 µM in each case.

As for `N#Cc1ccc(N2C[C@H](NC(=O)[C@H]3CCCN3)C[C@H](C(F)(F)F)C2)c2cccnc12` [Example 126, (2R)—N-[(3R,5S)-1-(8-cyanoquinolin-5-yl)-5-(trifluoromethyl)piperidin-3-yl]pyrrolidine-2-carboxamide], the figures for the IC50 at TLR8 and on TLR7 were greater than 0.15 µM and 0.075 to 0.15 µM, respectively.

Turning to `C[C@H]1C[C@@H](NC(=O)[C@@H](N)CC(N)=O)CN(c2ccc(C(F)(F)F)c3nccnc23)C1` [Example 127, (2S)-2-amino-N-[(3R,5S)-5-methyl-1-[8-(trifluoromethyl)quinoxalin-5-yl]piperidin-3-yl]butanediamide], the IC50 at TLR8 is less than 0.075 µM; on TLR7 it was 0.075 to 0.15 µM.

For the compound `C[C@H]1C[C@@H](NC(=O)[C@@H](N)CC(N)=O)CN(c2ccc(C(F)(F)F)c3ncccc23)C1` [Example 128, (2S)-2-amino-N-[(3R,5S)-5-methyl-1-[8-(trifluoromethyl)quinolin-5-yl]piperidin-3-yl]butanediamide], the IC50 on TLR8 and on TLR7 was less than 0.075 µM in each case.
